This passage reports Kd and IC50 results from patent US11318134B2, “Benzamide compounds” (priority 2018, dated 2022).

Structures are written as SMILES. Where two headings read alike, the source gives them in different places. Where only a bound is given, the exact number is not on record here.

Test [1] addresses T1, Bcl-XL (Homo sapiens (Human), UniProt Q07817). Description: Bcl-2 protein family binding assay (Bcl2scan platform), Bcl-XL. The following applies: BIM peptide ligand, 11-point dilution, read-out: Bc1-XL Kd (nm). The method, then: (§1) E. coli were grown to log-phase and infected with T7 phage from a frozen stock (multiplicity of infection=0.4) and incubated with shaking at 32° C. until lysis (90-150 minutes). The lysates were centrifuged (5,000×g) and filtered (0.2 μm) to remove cell debris. […] The liganded beads were blocked with excess biotin and washed with blocking buffer (SeaBlock (Pierce), 1% BSA, 0.05% Tween 20, 1 mM DTT) to remove unbound ligand and to reduce non-specific phage binding. […] Test compounds were prepared as 100× stocks in 100% DMSO. Kds were determined using an 11-point 3-fold compound dilution series with one DMSO control point. […] The compounds were then diluted directly into the assays such that the final concentration of DMSO was 0.9%. All reactions performed in polypropylene 384-well plates. Each was a final volume of 0.02 ml. […] The BCL2 concentration in the eluates was measured by qPCR. Binding constants (Kds) were calculated with a standard dose-response curve using the Hill equation:
(§2) [formula] The Hill Slope was set to −1. Curves were fitted using a non-linear least square fit with the Levenberg-Marquardt algorithm.

Test [2] concerns the target T2, Bcl-2 (Homo sapiens (Human), UniProt P10415). Nature of the test: Bcl-2 protein family binding assay (Bcl2scan platform), Bcl-2. The following applies: BIM peptide ligand, 11-point dilution, read-out: Bc1-2 Kd (nm). The method, then: as §1, §2
Test [3] deals with T1, Bcl-XL. Nature of the test: Bcl-XL HTRF assay (FAM-Bad peptide). The format is binding. Conditions: read-out: Bc1-XL IC50.
Test [4] has as its target T2, Bcl-2. Nature of the test: Bcl-2 HTRF assay (FAM-Bak peptide). Conditions: read-out: Bc1-2 IC50. In kind it is binding. (In general: In TR-FRET formats the signal depends on donor and acceptor labels being close together.)
The subject of another test is RS4;11 cells. Description: RS4;11 cell proliferation assay (CellTiter-Glo). The format is cell-based. The following applies: Homo sapiens, RS4-11, 48 h, read-out: RS4;11 (nM), CTG IC50. The procedure:
(§3) Cell proliferation was measured using the CellTiter-Glo® Luminescent Cell Viability Assay. The assay involved the addition of a single reagent (CellTiter-Glo® Reagent) directly to cells cultured in serum-supplemented medium.
(§4) Each compound evaluated was prepared as a DMSO stock solution (10 mM). Compounds were tested in duplicate on each plate, with a 10-point serial dilution curve (1:3 dilution). Compound treatment (1.0 μL) was added from the compound dilution plate to the cell plate. The highest compound concentration was 10 μM (final), with a 0.1% final DMSO concentration. Plates were then incubated at 37° C., 5% CO2. After 48 h of compound treatment for RS4;11 or 72 h for NCI-H1963, cell plates were equilibrated at rt for approximately 30 mins. An equi-volume amount of CellTiter-Glo® Reagent (40 μL) was added to each well. […] Luminescence was recorded using a Envision plate reader according to CellTiter-Glo protocol. IC50 of each compound was calculated using GraphPad Prism by nonlinear regression analysis.

Another test has as its system NCI-H1963 cells. Description: NCI-H1963 cell proliferation assay (CellTiter-Glo). In kind it is cell-based. Conditions: Homo sapiens, NCI-H1963, 72 h, read-out: H1963 (nM), CTG IC50. The method, then:
as §3, §4
Background: In ATP-based viability assays light output follows the ATP content of the culture.

Setting [5] is: HTRF, 3 nM Bcl-XL, 40 nM FAM-Bad peptide.
Setting [6] is: HTRF, 4 nM Bcl-2, 100 nM FAM-Bak peptide.

T2 sequence (P10415 whole entry): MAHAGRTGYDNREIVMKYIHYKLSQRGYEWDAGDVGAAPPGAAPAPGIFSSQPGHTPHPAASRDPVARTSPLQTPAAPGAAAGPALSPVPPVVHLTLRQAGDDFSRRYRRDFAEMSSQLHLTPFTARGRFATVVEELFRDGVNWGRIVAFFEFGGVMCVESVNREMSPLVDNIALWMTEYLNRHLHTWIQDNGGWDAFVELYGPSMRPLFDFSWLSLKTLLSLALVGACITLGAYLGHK
T1 sequence (Q07817 whole entry): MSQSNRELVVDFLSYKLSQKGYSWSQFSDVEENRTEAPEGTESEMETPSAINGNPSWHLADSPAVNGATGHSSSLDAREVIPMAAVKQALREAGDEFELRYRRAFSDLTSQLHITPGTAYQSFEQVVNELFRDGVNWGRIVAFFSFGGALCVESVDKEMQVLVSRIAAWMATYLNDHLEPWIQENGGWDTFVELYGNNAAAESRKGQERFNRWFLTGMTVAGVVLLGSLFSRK

Consider `CC1(C)CCC(CN2CCN(c3ccc(C(=O)NS(=O)(=O)c4ccc(NC[C@H]5CC[C@](C)(O)CC5)c([N+](=O)[O-])c4)c(Oc4cnc5[nH]ccc5c4)c3)CC2)=C(C23CC(C(F)F)(C2)C3)C1` [Example 34, 2-((1H-pyrrolo[2,3-b]pyridin-5-yl)oxy)-4-(4-((2-(3-(difluoromethyl)bicyclo[1.1.1]pentan-1l-yl)-4,4-dimethylcyclohex-1-en-1-yl)methyl)piperazin-1-yl)-N-((4-((((1r,4r)-4-hydroxy-4-methylcyclohexyl)methyl)amino)-3-nitrophenyl)sulfonyl)benzamide], for which the Kd (usually the equilibrium constant for the complex coming apart) on Bcl-XL [1] was more than 100 nM; on Bcl-2 [2] it was less than 10 nM. Moreover, the IC50 on Bcl-XL [3] (setting [5]) is 10 to 100 nM; at Bcl-2 [4] (setting [6]), not above 10 nM; in the test on RS4;11 cells it was less than 100 nM.
As for `CN(CCO)CC[C@H](CSc1ccccc1)Nc1ccc(S(=O)(=O)NC(=O)c2ccc(N3CCN(CC4=C(C56CC(C)(C5)C6)CC(C)(C)CC4)CC3)cc2)cc1S(=O)(=O)C(F)(F)F` [Example 49, (R)-4-(4-((4,4-dimethyl-2-(3-methylbicyclo[1.1.1]pentan-1-yl)cyclohex-1-en-1-yl)methyl)piperazin-1-yl)-N-((4-((4-((2-hydroxyethyl)(methyl)amino)-1-(phenylthio)butan-2-yl)amino)-3-((trifluoromethyl)sulfonyl)phenyl)sulfonyl)benzamide], the IC50 is not above 10 nM at Bcl-XL [3] (setting [5]), not above 10 nM on Bcl-2 [4] (setting [6]) and 100 to 1000 nM in the test on RS4;11 cells.
For `O=C(NS(=O)(=O)c1ccc(N[C@H](CCN2CCC(O)CC2)CSc2ccccc2)c(S(=O)(=O)C(F)(F)F)c1)c1ccc(N2CCN(CC3=C(C45CC(C(F)F)(C4)C5)CC4(CCC4)CC3)CC2)cc1` [Example 67, (R)-4-(4-((6-(3-(difluoromethyl)bicyclo[1.1.1]pentan-1-yl)spiro[3.5]non-6-en-7-yl)methyl)piperazin-1-yl)-N-((4-((4-(4-hydroxypiperidin-1-yl)-1-(phenylthio)butan-2-yl)amino)-3-((trifluoromethyl)sulfonyl)phenyl)sulfonyl)benzamide], the IC50 at Bcl-XL [3] (setting [5]) was not above 10 nM; at Bcl-2 [4] (setting [6]), not above 10 nM; in the test on RS4;11 cells, 100 to 1000 nM.
As for `CC1(C)CCC(C23CC(Cl)(C2)C3)=C(CN2CCN(c3ccc(C(=O)NS(=O)(=O)c4ccc(N[C@H](CCN5CCC(O)CC5)CSc5ccccc5)c(S(=O)(=O)C(F)(F)F)c4)cc3)CC2)C1` [Example 46], the IC50 on Bcl-XL [3] (setting [5]) was not above 10 nM; on Bcl-2 [4] (setting [6]), not above 10 nM; in the test on RS4;11 cells it was 100 to 1000 nM.
For the compound `CCC12CC(C3=C(CN4CCN(c5ccc(C(=O)NS(=O)(=O)c6ccc(N[C@H](CCN(C)CCO)CSc7ccccc7)c(S(=O)(=O)C(F)(F)F)c6)cc5)CC4)CCC(C)(C)C3)(C1)C2` [Example 50, (R)-4-(4-((2-(3-Ethylbicyclo[1.1.1]pentan-1-yl)-4,4-dimethylcyclohex-1-en-1-yl)methyl)piperazin-1-yl)-N-((4-((4-((2-hydroxyethyl)(methyl)amino)-1-(phenylthio)butan-2-yl)amino)-3-((trifluoromethyl)sulfonyl)phenyl)sulfonyl)benzamide], the IC50 was not above 10 nM at Bcl-XL [3] (setting [5]), not above 10 nM on Bcl-2 [4] (setting [6]) and 100 to 1000 nM in the test with RS4;11 cells.
As to `CC1(C)CCC(CN2CCN(c3ccc(C(=O)NS(=O)(=O)c4ccc(NCC5(F)CCOCC5)c([N+](=O)[O-])c4)c(Oc4cnc5[nH]ccc5c4)c3)CC2)=C(C23CC(C)(C2)C3)C1` [Example 15, 2-(1H-pyrrolo[2,3-b]pyridin-5-yloxy)-4-(4-((4,4-dimethyl-2-(3-methylbicyclo[1.1.1]pentan-1-yl)cyclohex-1-enyl)methyl)piperazin-1-yl)-N-(4-((4-fluorotetrahydro-2H-pyran-4-yl)methylamino)-3-nitrophenylsulfonyl)benzamide], the Kd was more than 100 nM on Bcl-XL [1] and less than 10 nM on Bcl-2 [2]. For the same compound, the values for the IC50 on Bcl-XL [3] (setting [5]), at Bcl-2 [4] (setting [6]) and in the test with RS4;11 cells were not below 100 nM, not above 10 nM and less than 100 nM, respectively.
Taken in the same sequence, the figures for `CC1(C)CCC(CN2CCN(c3ccc(C(=O)NS(=O)(=O)c4ccc(NC[C@H]5CC[C@](C)(O)CC5)c([N+](=O)[O-])c4)c(Oc4cnc5[nH]ccc5c4)c3)CC2)=C(C23CC(C)(C2)C3)C1` [Example 20, 2-(1H-pyrrolo[2,3-b]pyridin-5-yloxy)-4-(4-((4,4-dimethyl-2-(3-methylbicyclo[1.1.1]pentan-1-yl)cyclohex-1-enyl)methyl)piperazin-1-yl)-N-(4-(((1r,4r)-4-hydroxy-4-methylcyclohexyl)methylamino)-3-nitrophenylsulfonyl)benzamide] were more than 100 nM, less than 10 nM, not below 100 nM, not above 10 nM and less than 100 nM.
Regarding `CC1(C)CCC(C23CC(C)(C2)C3)=C(CN2CCN(c3ccc(C(=O)NS(=O)(=O)c4ccc(N[C@H](CCN5CCC(O)CC5)CSc5ccccc5)c(S(=O)(=O)C(F)(F)F)c4)cc3)CC2)C1` [Example 48, (R)-4-(4-((5,5-dimethyl-2-(3-methylbicyclo[1.1.1]pentan-1-yl)cyclohex-1-enyl)methyl)piperazin-1-yl)-N-(4-(4-(4-hydroxypiperidin-1-yl)-1-(phenylthio)butan-2-ylamino)-3-(trifluoromethylsulfonyl)phenylsulfonyl)benzamide], the Kd at Bcl-XL [1] and at Bcl-2 [2] was 10 to 100 nM throughout. Moreover, the figures for the IC50 at Bcl-XL [3], on Bcl-2 [4] and with RS4;11 cells were less than 10 nM, less than 10 nM and 100 to 1000 nM, respectively.
For the compound `CC1(C)CCC(CN2CCN(c3ccc(C(=O)NS(=O)(=O)c4ccc(N[C@H](CCN5CCOCC5)CSc5ccccc5)c(S(=O)(=O)C(F)(F)F)c4)cc3)CC2)=C(C23CC(C(F)F)(C2)C3)C1` [Example 55, (R)-4-(4-((2-(3-(difluoromethyl)bicyclo[1.1.1]pentan-1-yl)-4,4-dimethylcyclohex-1-en-1-yl)methyl)piperazin-1-yl)-N-((4-((4-morpholino-1-(phenylthio)butan-2-yl)amino)-3-((trifluoromethyl)sulfonyl)phenyl)sulfonyl)benzamide], the IC50 is not above 10 nM on Bcl-XL [3] (setting [5]), not above 10 nM on Bcl-2 [4] (setting [6]) and 100 to 1000 nM in the test on RS4;11 cells.
As to `CC1(C)CCC(CN2CCN(c3ccc(C(=O)NS(=O)(=O)c4ccc(N[C@H](CCN5CCOCC5)CSc5ccccc5)c([N+](=O)[O-])c4)cc3)CC2)=C(C23CC(C(F)F)(C2)C3)C1` [Example 58, (R)-4-(4-((2-(3-(difluoromethyl)bicyclo[1.1.1]pentan-1-yl)-4,4-dimethylcyclohex-1-en-1-yl)methyl)piperazin-1-yl)-N-((4-((4-morpholino-1-(phenylthio)butan-2-yl)amino)-3-nitrophenyl)sulfonyl)benzamide], the IC50 on Bcl-XL [3] (setting [5]) was not above 10 nM; on Bcl-2 [4] (setting [6]) it was not above 10 nM; with RS4;11 cells, 100 to 1000 nM.
Regarding `CC1(C)CCC(CN2CCN(c3ccc(C(=O)NS(=O)(=O)c4ccc(N[C@H](CCN5CCN(CCO)CC5)CSc5ccccc5)c(S(=O)(=O)C(F)(F)F)c4)cc3)CC2)=C(C23CC(C(F)F)(C2)C3)C1` [Example 69, (R)-4-(4-((2-(3-(difluoromethyl)bicyclo[1.1.1]pentan-1-yl)-4,4-dimethylcyclohex-1-en-1-yl)methyl)piperazin-1-yl)-N-((4-((4-(4-(2-hydroxyethyl)piperazin-1-yl)-1-(phenylthio)butan-2-yl)amino)-3-((trifluoromethyl)sulfonyl)phenyl)sulfonyl)benzamide], the values for the IC50 in the test with NCI-H1963 cells, at Bcl-XL [3] (setting [5]) and at Bcl-2 [4] (setting [6]) were 500 to 1000 nM, not above 10 nM and not above 10 nM, respectively.
